For the assay, the system named is C3AKF1 mice, hamster liver cystadenocarcinoma s.c., tumor weight T/C. The experiment in a line: NCI In Vivo Anticancer Drug Screen. Data for tumor model Cystadenocarcinoma, Liver (No. 1) (Hamster) (subcutaneous) in C3AKF1 (CHKRF1) mice. As to conditions: endpoint: mean tumor weight, schedule: Q01DX010 (ip), higher = larger tumour. On the procedure: The antitumor activity of compounds was measured in mice bearing transplantable tumors. Survival or tumor size were measured and the results are expressed as the measurement made in the treated group (T) divided by the measurement made in the vehicle treated control group (C). The tumor model used in this assay is Cystadenocarcinoma, Liver (No. 1) (Hamster) (subcutaneous) in C3AKF1 (CHKRF1) mice

[1] abbreviates: dose: 20.0 mg/kg/injection, vehicle: carboxymethylcellulose (CMC).
[2] abbreviates: dose: 62.5 mg/kg/injection, vehicle: carboxymethylcellulose (CMC).
The mark [3] stands for this setting: dose: 125.0 mg/kg/injection, vehicle: carboxymethylcellulose (CMC).
Setting [4] is: dose: 250.0 mg/kg/injection, vehicle: carboxymethylcellulose (CMC).
Where [5] appears, read: dose: 1.0 mg/kg/injection, vehicle: carboxymethylcellulose (CMC).
Where [6] appears, read: dose: 50.0 mg/kg/injection, vehicle: saline.
The mark [7] stands for this setting: dose: 100.0 mg/kg/injection, vehicle: saline.
[8] abbreviates: dose: 200.0 mg/kg/injection, vehicle: saline.
[9] abbreviates: dose: 25.0 mg/kg/injection, vehicle: carboxymethylcellulose (CMC).
Setting [10] is: dose: 50.0 mg/kg/injection, vehicle: carboxymethylcellulose (CMC).
[11] abbreviates: dose: 100.0 mg/kg/injection, vehicle: carboxymethylcellulose (CMC).
The mark [12] stands for this setting: dose: 15.0 mg/kg/injection, vehicle: carboxymethylcellulose (CMC).
[13] abbreviates: dose: 400.0 mg/kg/injection, vehicle: carboxymethylcellulose (CMC).
Where [14] appears, read: dose: 19.0 mg/kg/injection, vehicle: carboxymethylcellulose (CMC).
Where [15] appears, read: dose: 37.5 mg/kg/injection, vehicle: carboxymethylcellulose (CMC).
Where [16] appears, read: dose: 3.0 mg/kg/injection, vehicle: carboxymethylcellulose (CMC).

Where “and” joins values, the source holds several entries; their conditions need not be identical. Equal values may be shown once. Inconclusive results are not listed.

These results are taken from PubChem BioAssay AID234 (DTP/NCI, 2004).

With `CN(C)CCCN1c2ccccc2Sc2ccc(C(F)(F)F)cc21`, where the note is “dose: 12.0 mg/kg/injection, vehicle: saline”, the T/C was 84 % of control.

Consider `CN(C)Nc1ncnc2nc[nH]c12`, for which the T/C runs as follows: under setting [1], 107 % of control; (dose: 40.0 mg/kg/injection, vehicle: carboxymethylcellulose (CMC)) 102 % of control.

In the case of `c1ccc2c(c1)ccc1cc3c(ccc4ccccc43)cc12`, the T/C runs as follows: under setting [2], 64 % of control; under setting [3], 88 % of control; under setting [4], 86 % of control.

Take `N#C[C@@H]1C2C=CC(CC2)[C@H]1C#N`: the T/C reads like this: (dose: 0.5 mg/kg/injection, vehicle: carboxymethylcellulose (CMC)) 72 % of control; under setting [5], 68 % of control; (dose: 2.0 mg/kg/injection, vehicle: carboxymethylcellulose (CMC)) 57 % of control.

As to `CS(=O)(=O)OCCCCCCCCCOS(C)(=O)=O`, the T/C was 99 % of control (dose: 8.0 mg/kg/injection, vehicle: carboxymethylcellulose (CMC)) and 82 % of control (dose: 16.0 mg/kg/injection, vehicle: carboxymethylcellulose (CMC)).

Turning to `COc1ccc2c(c1OC)C(=O)O[C@@H]2[C@H]1c2c(cc3c(c2OC)OCO3)CCN1C`, the T/C by setting is: under setting [6], 102 % of control; under setting [7], 88 % of control; under setting [8], 92 % of control.

On to `CCOC1=CCCCC1`, for which the T/C was 94 % of control (dose: 62.0 mg/kg/injection, vehicle: carboxymethylcellulose (CMC)); 106 % of control under setting [3]; 48 % of control (dose: 125.0 mg/kg/injection, vehicle: saline); 95 % of control (dose: 250.0 mg/kg/injection, vehicle: saline); 99 % of control (dose: 500.0 mg/kg/injection, vehicle: saline).

On to `CCCNC(=NC)c1ccc(NC(=O)c2ccc(C(=O)Nc3ccc(C(=NC)NCCC)cc3)cc2)cc1`, for which the T/C (dose: 12.0 mg/kg/injection, vehicle: carboxymethylcellulose (CMC)) is 99 % of control.

In the case of `NC(CCSCc1ccc(N(CCCl)CCCl)cc1)C(=O)O` (configuration not stated), the T/C was 90 % of control (dose: 4.5 mg/kg/injection, vehicle: saline); 94 % of control (dose: 9.0 mg/kg/injection, vehicle: saline); 84 % of control (dose: 16.0 mg/kg/injection, vehicle: saline); 52 % of control (dose: 18.0 mg/kg/injection, vehicle: saline); 63 % of control (dose: 24.0 mg/kg/injection, vehicle: saline); 55 % of control (dose: 36.0 mg/kg/injection, vehicle: saline).

Turning to `Cc1ccc(N=NN(C)C)cc1`, the T/C is, setting by setting: under setting [9], 96 % of control; under setting [10], 93 % of control.

As for `O=[n+]1c2c(n([O-])c3ccccc31)-c1cccc3cccc-2c13`, the T/C was 64 % of control under setting [9], 74 % of control under setting [10] and 48 % of control under setting [11].

With `CC1CN1C(=O)c1cc(C(=O)N2CC2C)cc(C(=O)N2CC2C)c1` (configuration not stated), the T/C reads like this: under setting [12], 83 % of control; (dose: 30.0 mg/kg/injection, vehicle: carboxymethylcellulose (CMC)) 84 % of control; (dose: 60.0 mg/kg/injection, vehicle: carboxymethylcellulose (CMC)) 118 % of control.

With `CN(C)c1ccc(/C=C\c2ccnc3ccccc23)cc1`, the T/C is, setting by setting: (dose: 1.25 mg/kg/injection, vehicle: carboxymethylcellulose (CMC)) 98 % of control; (dose: 2.5 mg/kg/injection, vehicle: carboxymethylcellulose (CMC)) 95 % of control; (dose: 5.0 mg/kg/injection, vehicle: carboxymethylcellulose (CMC)) 96 % of control; (dose: 10.0 mg/kg/injection, vehicle: carboxymethylcellulose (CMC)) 88 % of control and 89 % of control; under setting [1], 67 % of control.

As for `CCCCCCCCCC(C)(O)C#CC(C)(O)CCCCCCCCC` (configuration not stated), the T/C (dose: 12.5 mg/kg/injection, vehicle: carboxymethylcellulose (CMC)) was 86 % of control; the T/C under setting [9] is 74 % of control; the T/C under setting [10] was 96 % of control; the T/C under setting [11] is 64 % of control.

For `Nc1nc(N)c(N=Nc2ccccc2)c(=O)[nH]1`, the T/C under setting [10] is 100 % of control; the T/C under setting [11] is 110 % of control; the T/C (dose: 200.0 mg/kg/injection, vehicle: carboxymethylcellulose (CMC)) was 93 % of control; the T/C under setting [13] was 100 % of control.

As to `Nc1ccc2ccccc2c1N=Nc1ccccc1`, the T/C reads like this: under setting [2], 73 % of control; under setting [3], 79 % of control.

As to `CN(N=O)C(N)=O`, the T/C (dose: 3.75 mg/kg/injection, vehicle: carboxymethylcellulose (CMC)) is 95 % of control.

For `CC(C)NCC(=O)c1ccc(O)c(O)c1`, the T/C reads like this: under setting [6], 75 % of control; under setting [7], 59 % of control; under setting [8], 90 % of control.

`C1CC[N-]CC1.C1CC[N-]CC1.C1CC[N-]CC1.C1CC[N-]CC1.[Cl][Co][Cl]`: the T/C was 84 % of control (dose: 35.0 mg/kg/injection, vehicle: saline); 82 % of control (dose: 55.0 mg/kg/injection, vehicle: saline); 71 % of control (dose: 80.0 mg/kg/injection, vehicle: saline).

Take `Clc1ccc2c(Cl)ncnc2c1`: the T/C was 116 % of control (dose: 4.8 mg/kg/injection, vehicle: carboxymethylcellulose (CMC)); 110 % of control (dose: 9.5 mg/kg/injection, vehicle: carboxymethylcellulose (CMC)); 96 % of control under setting [14]; 104 % of control under setting [15].

Turning to `COC(=O)[C@@H]1c2cc3c(c(O)c2[C@@H](OC2OC(C)C(OC)C(C)(OC)C2OC)C[C@]1(C)O)C(=O)c1c(O)cc2c(c1C3=O)O[C@H]1O[C@]2(C)[C@H](O)[C@@H](N(C)C)[C@@H]1O` (some centres not stated), for the setting “dose: 0.25 mg/kg/injection, vehicle: saline”, the T/C is 103 % of control.

Consider `CC(=O)NCCSC(=O)C(=O)SCCNC(C)=O`, for which the T/C is, setting by setting: under setting [9], 72 % of control; under setting [10], 111 % of control; under setting [11], 65 % of control.

Regarding `CC(C)CCS(=O)(=O)OCCCCOS(=O)(=O)CCC(C)C`, the T/C was 57 % of control under setting [2]; 94 % of control under setting [3]; 57 % of control under setting [4]; 75 % of control (dose: 500.0 mg/kg/injection, vehicle: carboxymethylcellulose (CMC)).

Take `CNC=O`: the T/C by setting is: under setting [6], 39 % of control; under setting [7], 34 % of control; under setting [8], 20 % of control.

With `CCCCCCCCCCCCCCCCC(C(=O)O)C(O)(CC(=O)O)C(=O)O` (configuration not stated), the T/C by setting is: under setting [14], 78 % of control; under setting [15], 87 % of control.

Take `CCCn1cnc2c(SCc3ccccc3Cl)nc(N)nc21`: the T/C under setting [9] is 88 % of control; the T/C under setting [11] was 90 % of control and 105 % of control; the T/C under setting [13] was 96 % of control.

In the case of `Cc1nc(N)nc(N)c1-c1ccc(Cl)c(Cl)c1`, the T/C was 83 % of control (dose: 0.75 mg/kg/injection, vehicle: carboxymethylcellulose (CMC)); 106 % of control (dose: 1.5 mg/kg/injection, vehicle: carboxymethylcellulose (CMC)); 100 % of control under setting [16].

`Cn1cnc([N+](=O)[O-])c1Sc1nc(N)nc2c1ncn2C1OC(CO)C(O)C1O` (configuration not stated): the T/C was 124 % of control under setting [5], 69 % of control under setting [16] and 88 % of control under setting [12].
